pEC50: −log10 of the molar value.

By pEC50 is commonly meant the negative decadic logarithm of the EC50, by convention in mol/L.

For this test, the target named is mGluR7 (Homo sapiens, UniProt Q14831). Kind of test: cAMP CRE-luciferase reporter gene assay (Steady Glo) in CHO-CRE-luc cells stably expressing human mGluR7. Type of test: cell-based. On the set-up: expressed in transfected cells. The conditions noted are these: reduction of forskolin stimulated cAMP (luminescence); CHO CRE-luc human mGluR7; read-out: EC50. The procedure: Compound activities were determined in CHO-CRE-luc cells stably expressing hu/mo mGluR7, using a cAMP reporter gene assay (Steady Glo, Promega). Selectivity was assessed in stable CHO-mGluR4 cells (DiscoverX) and CHO-mGluR8 transients using an HTRF cAMP assay (Cisbio).
Chain of mGluR7 (Q14831 35-915): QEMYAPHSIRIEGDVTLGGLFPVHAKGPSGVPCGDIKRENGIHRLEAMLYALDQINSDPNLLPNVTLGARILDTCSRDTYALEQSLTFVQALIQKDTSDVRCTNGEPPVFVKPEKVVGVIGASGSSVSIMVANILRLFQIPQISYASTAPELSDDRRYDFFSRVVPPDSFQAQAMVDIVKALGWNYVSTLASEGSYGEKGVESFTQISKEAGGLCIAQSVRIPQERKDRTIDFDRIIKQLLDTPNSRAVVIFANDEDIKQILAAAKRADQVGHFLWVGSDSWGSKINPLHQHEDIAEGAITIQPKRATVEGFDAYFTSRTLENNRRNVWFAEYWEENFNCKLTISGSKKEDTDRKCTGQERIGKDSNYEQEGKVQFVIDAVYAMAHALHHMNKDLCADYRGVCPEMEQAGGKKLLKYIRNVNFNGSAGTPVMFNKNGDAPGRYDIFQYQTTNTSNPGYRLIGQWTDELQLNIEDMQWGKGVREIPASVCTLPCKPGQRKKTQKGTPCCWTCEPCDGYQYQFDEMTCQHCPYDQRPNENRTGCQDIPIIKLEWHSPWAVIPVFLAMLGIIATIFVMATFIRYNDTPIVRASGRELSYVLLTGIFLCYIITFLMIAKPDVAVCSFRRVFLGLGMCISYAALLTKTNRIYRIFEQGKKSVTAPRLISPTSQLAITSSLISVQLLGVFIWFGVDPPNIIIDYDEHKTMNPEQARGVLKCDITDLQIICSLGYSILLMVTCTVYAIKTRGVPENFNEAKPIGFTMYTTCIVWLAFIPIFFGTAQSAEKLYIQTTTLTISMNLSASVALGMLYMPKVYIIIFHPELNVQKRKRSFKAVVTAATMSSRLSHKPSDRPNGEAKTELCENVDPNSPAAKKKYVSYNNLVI
The ability of the test compounds to activate mGluR7 was determined by their ability to reduce forskolin stimulated cAMP production. Compounds were assessed in a CRE-directed luciferase reporter gene assay, using a stable CHO cell line expressing the CRE-luc reporter and human mGluR7 genes. In this cell line, production of cAMP stimulated the transcription of the luciferase gene and luciferase activity was then measured in a luminescent enzyme assay (Steady Glo assay; Promega E2550). Activation of mGluR7 decreased the forskolin stimulated luminescence signal.
The day prior to the assay, compounds were serially diluted in DMSO (100× final assay concentration (FAC)), in 384-well plates which were then stored in the dark at room temperature (RT) until use. Cells were seeded at 12.5 k/well in white, clear bottom 384-well plates (Corning 3707) and left for one hour at RT followed by an overnight incubation (37° C.). The following day, the DMSO compound plate was diluted 1:20 (5×FAC) in Opti-MEM I (Life Technologies 11058021). The growth media was removed from the cell plate and replaced with 15 μl Opti-MEM I, followed by a 5 μl addition from the 5× compound plate and a fifteen minute incubation (37° C.). Forskolin (Sigma F3917) was then added to the wells (5 μl of 2.5 μM) and the plate was incubated for five hours (37° C.). During this incubation, the Steady Glo Substrate reagent was warmed to 37° C. Aliquots (11 ml; stored at −20° C.) of this reagent were prepared by dissolving the contents of 1 vial of lyophilised substrate in 100 ml Steady-Glo buffer. A 25 μl addition of the substrate was made to all wells and the plate was incubated for thirty minutes at RT, on a plate shaker (300 rpm; in the dark). Luminescence was then measured using the EnVision Multilabel Reader (Perkin Elmer).
Compound activity was examined using a 10-point, half log concentration-response range and each concentration was tested in duplicate wells. Luminescence values were normalised to ‘maximum’ (forskolin alone) and ‘minimum’ (forskolin in the presence of tool mGluR7 agonist) controls.
As for `C[C@H](C(=O)NC1COc2ccccc2C1=O)c1ccccc1` (stereo partly drawn) [Example 4, (2S)—N-(4-oxo-3,4-dihydro-2H-1-benzopyran-3-yl)-2-phenylpropanamide], the pEC50 was 6.07.
In the case of `COC1c2ccccc2OCC1NC(=O)[C@@H]1c2ccccc2CC(=O)N1CC1CC1` (single isomer, unassigned) [Example 19] it was 8.22; in that of `C[C@H](C(=O)NC1COc2ccccc2C1(C)O)c1ccccc1` (single isomer, unassigned) [Example 8], 6.56; in that of `C[C@H](C(=O)NC1COc2ccccc2C1(C)O)c1ccccc1` (single isomer, unassigned) [Example 7], 6.04.
`C[C@H](C(=O)NC1COc2ccccc2C1N1CCCC1)c1ccc(F)cc1` (single isomer, unassigned) [Example 35]: the pEC50 is 7.21.
For the compound `C[C@H](C(=O)NC1COc2ccccc2C1O)c1ccccc1` (single isomer, unassigned) [Example 6], the pEC50 is 7.00.
The figure for `CO[C@@H]1c2ccccc2OC[C@H]1NC(=O)C(Oc1ccnc(C)n1)c1ccc(F)cc1F` (relative stereo) [Example 31, 2-(2,4-difluorophenyl)-N-((trans)-4-methoxy-3,4-dihydro-2H-1-benzopyran-3-yl)-2-[(2-methylpyrimidin-4-yl)oxy]acetamide] is 7.27.
The figure for `CNC1c2ccccc2OCC1NC(=O)[C@@H](C)c1ccc(F)cc1` (single isomer, unassigned) [Example 23] is 6.96; for `CNC1c2ccccc2OCC1NC(=O)[C@@H](C)c1ccccc1` (stereo in doubt) [Example 14, (2S)—N-[(trans)-4-(methylamino)-3,4-dihydro-2H-1-benzopyran-3-yl]-2-phenylpropanamide] it is 7.19.
The figure for `C[C@H](C(=O)NC1COc2ccccc2C1N1CCC1)c1ccc(F)cc1` (single isomer, unassigned) [Example 36] is 7.48; for `CO[C@@H]1c2ccccc2OC[C@H]1NC(=O)C(c1ccc(F)cc1F)N1CC(OC(F)(F)F)C1` (relative stereo) [Example 25, 2-(2,4-difluorophenyl)-N-((trans)-4-methoxy-3,4-dihydro-2H-1-benzopyran-3-yl)-2-[3-(trifluoromethoxy)azetidin-1-yl]acetamide] it is 7.57.
Take `C[C@H](C(=O)NC1COc2ccccc2C1O)c1ccccc1` (single isomer, unassigned) [Example 5]: the pEC50 was 7.17.
In the case of `C[C@H](C(=O)NC1COc2ccccc2C1S(C)(=O)=O)c1ccc(Cl)cc1` (single isomer, unassigned) [Example 21] it was 7.48; in that of `COC1c2ccccc2OCC1NC(=O)[C@@H]1c2ccccc2CC(=O)N1CCCF` (single isomer, unassigned) [Example 27], 7.66.
Consider `CO[C@@H]1c2ccccc2OC[C@H]1NC(=O)C(c1ccc(F)cc1F)n1ccccc1=O` (relative stereo) [Example 32, 2-(2,4-difluorophenyl)-N-((trans)-4-methoxy-3,4-dihydro-2H-1-benzopyran-3-yl)-2-(2-oxo-1,2-dihydropyridin-1-yl)acetamide], for which the pEC50 was 6.52.
As to `C[C@H](C(=O)NC1COc2ccccc2C1N1CCOCC1)c1ccc(F)cc1` (single isomer, unassigned) [Example 39], the negative-log EC50 (pEC50) was 7.64.
`CNC(=O)c1ccccc1C(=O)NC1c2ccccc2OCC1NC(=O)[C@@H](C)c1ccc(F)cc1` (single isomer, unassigned) [Example 33]: the negative-log EC50 (pEC50) was 6.15.
In the case of `C[C@H](C(=O)NC1COc2ccccc2C1N(C)C)c1ccc(F)cc1` (single isomer, unassigned) [Example 37] it was 7.26; in that of `C[C@H](C(=O)NC1COc2ccccc2C1N1CCC(F)(F)C1)c1ccc(F)cc1` (single isomer, unassigned) [Example 38], 7.52.
In the case of `CNC1c2ccccc2OCC1NC(=O)[C@@H](C)c1ccccc1` (single isomer, unassigned) [Example 9] it was 5.30; in that of `C[C@H](C(=O)NC1COc2ccccc2C1S(C)(=O)=O)c1ccccc1` (single isomer, unassigned) [Example 13], 7.59; in that of `C[C@H](C(=O)NC1COc2ccccc2C1S(C)(=O)=O)c1ccc(Cl)cc1` (single isomer, unassigned) [Example 20], 8.00.
Consider `CNC(=O)c1ccccc1C(=O)NC1c2ccccc2OCC1NC(=O)[C@@H](C)c1ccc(F)cc1` (single isomer, unassigned) [Example 34], for which the pEC50 was 7.01.
Turning to `CO[C@@H]1c2ccccc2OC[C@H]1NC(=O)C(OCC1CC1)c1ccc(F)cc1` (relative stereo) [Example 30, 2-(cyclopropylmethoxy)-2-(4-fluorophenyl)-N-((trans)-4-methoxy-3,4-dihydro-2H-1-benzopyran-3-yl)acetamide], the negative-log EC50 (pEC50) is 7.96.
In the case of `CNC1c2ccccc2OCC1NC(=O)[C@@H](C)c1ccc(F)cc1` (single isomer, unassigned) [Example 22] it was 7.16; in that of `C[C@H](C(=O)NC1COc2ccccc2C1S(C)(=O)=O)c1ccccc1` (single isomer, unassigned) [Example 12], 8.15; in that of `C[C@H](C(=O)NC1COc2ccccc2C1O)c1ccccc1` (single isomer, unassigned) [Example 2], 7.02.
The figure for `CNC1c2ccccc2OCC1NC(=O)[C@@H](C)c1ccccc1` (single isomer, unassigned) [Example 10] is 5.78; for `CO[C@@H]1c2ccccc2OC[C@H]1NC(=O)C1c2ccccc2CC(=O)N1Cc1ccccn1` (relative stereo) [Example 29, N-((trans)-4-methoxy-3,4-dihydro-2H-1-benzopyran-3-yl)-3-oxo-2-[(pyridin-2-yl)methyl]-1,2,3,4-tetrahydroisoquinoline-1-carboxamide] it is 8.10; for `C[C@H](C(=O)NC1COc2ccccc2C1O)c1ccccc1` (single isomer, unassigned) [Example 1] it is 6.06.
As to `CO[C@@H]1c2ccccc2OC[C@H]1NC(=O)C1c2ccccc2CC(=O)N1CC1CCOCC1` (relative stereo) [Example 28, N-((trans)-4-methoxy-3,4-dihydro-2H-1-benzopyran-3-yl)-2-[(oxan-4-yl)methyl]-3-oxo-1,2,3,4-tetrahydroisoquinoline-1-carboxamide], the negative logarithm of the EC50 (pEC50) was 7.85.
The figure for `COC1c2ccccc2OCC1NC(=O)[C@@H]1c2ccccc2CC(=O)N1CC1CC1` (single isomer, unassigned) [Example 18] is 7.82; for `COC1c2ccccc2OCC1NC(=O)[C@@H](C)c1ccccc1` (single isomer, unassigned) [Example 11] it is 7.26.
The figure for `COC1c2ccccc2OCC1NC(=O)[C@@H]1c2ccccc2CC(=O)N1CC1CC1` (stereo in doubt) [Example 15, (1S)-2-(cyclopropylmethyl)-N-((trans)-4-methoxy-3,4-dihydro-2H-1-benzopyran-3-yl)-3-oxo-1,2,3,4-tetrahydroisoquinoline-1-carboxamide] is 7.85.
Take `C[C@H](C(=O)NC1COc2ccccc2C1S(C)(=O)=O)c1ccc(F)cc1` (single isomer, unassigned) [Example 17]: the negative logarithm of the EC50 (pEC50) is 7.55.
In the case of `C[C@H](C(=O)NC1COc2ccc(F)cc2C1O)c1ccccc1` (stereo in doubt) [Example 3, (2S)—N-((cis)-6-fluoro-4-hydroxy-3,4-dihydro-2H-1-benzopyran-3-yl)-2-phenylpropanamide] it was 5.92; in that of `COC1c2ccccc2OCC1NC(=O)[C@@H]1c2ccccc2CC(=O)N1CCCF` (single isomer, unassigned) [Example 26], 7.64; in that of `CO[C@@H]1c2ccccc2OC[C@H]1NC(=O)C(c1ccc(F)cc1)N1CC(OC(F)(F)F)C1` (relative stereo) [Example 24, 2-(4-fluorophenyl)-N-((trans)-4-methoxy-3,4-dihydro-2H-1-benzopyran-3-yl)-2-[3-(trifluoromethoxy)azetidin-1-yl]acetamide], 7.70.

The values are drawn from patent US11465994B2, “MGluR7 agonist compounds for treating mGluR7-regulated diseases, disorders, or conditions” (Takeda Pharmaceutical Company Limited, priority 2016, dated 2022).
